Patent publication US10259815B2, “Gabaergic ligands and their uses” (UWM Research Foundation, Inc., priority 2015, dated 2019)
Entries after “also recorded” stand apart in the source; their conditions may differ.

What was measured:
Rats = assay: Food-maintained operant responding (rate response); format: in vivo; conditions: three-assay comparison
Experimental: Food-maintained operant responding (rate response). Rats (n=7) were placed in a chamber consisting of two (one active) levers. Rats were trained to press a lever (left) for a food pellet under a multiple-cycle procedure. […] The active period was set on a FR10 schedule and rats could receive a maximum of 5 food pellets. The cue light was terminated either after 5 minutes or once 5 food pellets were delivered. After each active period (every 20 minutes), rats received the next dose of drug for a duration of 2 hours. Data (rate per minute) was collected using Graphic State 3.03 software and interface (Coulbourn Instruments Inc.)
Drugs. The following drugs were used: HZ166, KRM-II-18B, and KRM-II-81, and were dissolved in a mixture containing 20% Dimethyl sulfoxide (DMSO), 10% Emulphor-620 (Rhodia Inc.), and 70% of 0.9% saline. Flumazenil (purchased from Cayman Chemical Company, MI) was dissolved in a mixture containing 10% ethanol, 40% propylene glycol, and 50% sterile water. Midazolam (Akorn, Inc.) was dissolved in 0.9% saline. Doses were expressed as the weight of the drug in milligrams per kilogram of body weight and drugs were administered intraperitoneally.

[1] = Single-dose pharmacokinetics and brain concentrations, IV and IP, rats; format: in vivo, Sprague-Dawley rats
Experimental: The single-dose pharmacokinetics were determined in femoral artery/vein cannulated Sprague-Dawley rats. The rats received a 1 mg/kg intravenous and 10 mg/kg oral gavage dose of compound. Blood samples were collected at 0.08 (IV only), 0.25, 0.5, 1, 2, 4, 8, 12, and 24 hours after initiation of compound administration. Plasma was obtained via centrifugation. Plasma samples were then analyzed by LC-MS, and pharmacokinetic parameters calculated using Watson (version 7.4; Thermo Fisher Scientific). Calculated parameters include clearance (Cl), volume of distribution (Vdss), area-under-the-curve (AUC), half-life (T½), maximum plasma concentration (Cmax), time of maximum concentration (Tmax), and bioavailability (% F).
Male Sprague-Dawley rats were given either a 1 mg/kg […] dose or 10 mg/kg i.p. dose. Plasma concentrations were taken at 0.08, 0.25, 0.5, 1.0, 2, 4, 8, 12, and 24 hours (three rats per time point for each dose).

Male Sprague-Dawley rats [2] = assay: PTZ-induced seizure threshold; format: in vivo
Experimental: Results were analyzed using ANOVA (Dunnett's test: *P<0.05).
After a pretreatment of test compound, MET was intravenously administered to a test subject until a convulsions were observed.
Each animal was used only once and was euthanized post testing. Results were analyzed using ANOVA (Dunnett's test: *P<0.05).

Male Sprague-Dawley rats [3] = assay: Vogel conflict procedure; format: in vivo; conditions: i.p. 30 minutes prior; KRM-II-81 significant at 10 mg/kg; chlordiazepoxide 20 mg/kg
Experimental: FIG. 10 is a graph of the concentration of KRM-II-81 versus percent of control for KRM-II-81 analyzed in the Vogel conflict procedure. After a baseline was established using a vehicle (1% 2-hydroxyethyl cellulose), male Sprague-Dawley rats (n=6-8) were dosed i.p. with either KRM-II-81 (3, 10, 30, or 60 mg/kg) or chlordiazepoxide (20 mg/kg) 30 minutes prior to testing. Results were analyzed using ANOVA (Dunnett's test: *P<0.05; Student t-test: **P<0.05).
Subjects are withheld from water prior to testing. Once given water during testing, they will either be unpunished, where they are free to drink without consequence, or punished, where a small electrical shock is applied after every 20th lick. In vehicle punished, is it is expected that the rats hesitate from drinking due to the anxiousness of being shocked. When given an anxiolytic, the […] will continue to drink water despite the electrical shock.
Experiments were conducted as described in the protocol of Alt et al. (Neuropharmacology 2007, 52, 1482-1487). […]
Apparatus. […] All events were controlled and licking data was recorded by a Compaq computer running MED-PC Version IV (Med Associates Inc., Georgia, Vt., USA).
Sipper tube training. […] The six minutes was broken into two components, the first three minutes was recorded as the unpunished component and the second three minutes were recorded as the punished component. […]

CYP3A4 = CYP3A4 (Homo sapiens, UniProt P08684); assay: CYP substrate assessment, CYP3A4
CYP2D6 = CYP2D6 (Homo sapiens, UniProt P10635); assay: CYP substrate assessment, CYP2D6
Sequence of CYP2D6 (P10635 whole entry): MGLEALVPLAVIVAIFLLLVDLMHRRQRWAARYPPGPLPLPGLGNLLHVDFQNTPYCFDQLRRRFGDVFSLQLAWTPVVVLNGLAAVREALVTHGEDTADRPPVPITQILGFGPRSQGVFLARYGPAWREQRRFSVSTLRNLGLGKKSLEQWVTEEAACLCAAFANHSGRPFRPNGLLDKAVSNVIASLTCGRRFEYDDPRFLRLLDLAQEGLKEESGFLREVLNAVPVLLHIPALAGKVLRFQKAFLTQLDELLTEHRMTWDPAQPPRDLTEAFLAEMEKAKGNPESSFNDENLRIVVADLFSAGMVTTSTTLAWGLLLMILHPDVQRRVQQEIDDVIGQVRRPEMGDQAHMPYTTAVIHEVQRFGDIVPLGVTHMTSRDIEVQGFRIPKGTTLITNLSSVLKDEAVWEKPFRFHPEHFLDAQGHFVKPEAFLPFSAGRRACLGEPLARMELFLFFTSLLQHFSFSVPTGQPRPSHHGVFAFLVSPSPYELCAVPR

Sequence of CYP3A4 (P08684 whole entry): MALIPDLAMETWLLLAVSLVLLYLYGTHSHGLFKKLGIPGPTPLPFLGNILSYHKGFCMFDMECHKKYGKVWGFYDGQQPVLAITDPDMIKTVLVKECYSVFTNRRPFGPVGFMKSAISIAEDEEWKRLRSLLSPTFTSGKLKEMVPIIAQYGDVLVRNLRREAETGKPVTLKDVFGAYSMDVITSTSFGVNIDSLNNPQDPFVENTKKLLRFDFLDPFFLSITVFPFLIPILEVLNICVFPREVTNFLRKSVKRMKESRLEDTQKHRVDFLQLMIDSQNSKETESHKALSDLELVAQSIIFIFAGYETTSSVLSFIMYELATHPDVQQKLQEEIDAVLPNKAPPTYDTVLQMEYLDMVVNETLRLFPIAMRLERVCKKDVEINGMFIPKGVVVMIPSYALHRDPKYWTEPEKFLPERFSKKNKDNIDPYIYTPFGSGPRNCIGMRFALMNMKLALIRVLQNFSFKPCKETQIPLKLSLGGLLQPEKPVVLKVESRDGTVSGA

Row | SMILES | rate-suppressing activity, doses relative to antihyperalgesic doses (Rats) | mean clearance ([1]; 1 mg/kg IV dose in rat) [mL/min/kg] | mean AUC ([1]; 10 mg/kg IP dose in rat) [µM·h] | mean IP T ½ ([1]; 10 mg/kg IP dose in rat) [h] | mean bioavailability ([1]; 10 mg/kg IP dose in rat) [%] | Cmax ([1]; 10 mg/kg IP dose in rat, plasma) [µM] | half-life ([1]; Sprague-Dawley, plasma, 1 mg/kg IV dose in rat, read-out: mean T ½ (converted)) [h] | Vd ([1]; Sprague-Dawley, plasma, 1 mg/kg IV dose in rat, read-out: mean Vdss) [L/kg] | concentration at 1 h ([1]; male, Sprague-Dawley, rat, brain, intraperitoneal, 10 mg/kg IP dose, 1 hour) [µM] | concentration at 4 h ([1]; male, Sprague-Dawley, rat, brain, intraperitoneal, 10 mg/kg IP dose, 4 hour) [µM] | Kp uu at 1 h ([1]; male, Sprague-Dawley, rat, brain/plasma (unbound), 10 mg/kg IP dose, 1 hour) | Kp uu at 4 h ([1]; male, Sprague-Dawley, rat, brain/plasma (unbound), 10 mg/kg IP dose, 4 hour) | dose of MET required for convulsion (Male Sprague-Dawley rats [2]; pretreated with 10 mg/kg i.p., PTZ infused i.v.) [mg/kg] | effect on seizure threshold to PTZ (Male Sprague-Dawley rats [2]; test compound 3 to 60 mg/kg, diazepam 0.1 to 1 mg/kg i.p.) | punished licking compared to control (Male Sprague-Dawley rats [3]) | substrate of CYP3A4 (CYP3A4) | substrate of CYP2D6 (CYP2D6)
1 | C#Cc1ccc2c(c1)C(c1ccccc1F)=NCc1c(-c3cnco3)ncn1-2 [KRM-II-18B, 5-(8-Ethynyl-6-(2-fluorophenyl)-4H-benzo[f]imidazo[1,5-a][1,4]diazepin-3-yl)oxazole] | much larger doses | – | – | – | – | – | – | – | – | – | – | – | – | – | – | – | –
2 | C#Cc1ccc2c(c1)C(c1ccccn1)=NCc1c(-c3cnco3)ncn1-2 [KRM-II-81, 5-(8-Ethynyl-6-(pyridin-2-yl)-4H-benzo[f]imidazo[1,5-a][1,4]diazepin-3-yl)oxazole] | much larger doses | 21.7 | 16.5 | 3.1 | 69 | 3.09 | 1.4 | 1.4 | 6.63 | 2.05 | 0.53 | 0.67 | 71 | significantly increased the seizure threshold to PTZ; also recorded: larger maximal effect | significant increase in punished licking | not found to be a substrate | not found to be a substrate
